Results from US20060084135A1, “Compositions for manipulating the lifespan and stress response of cells and organisms” (priority 2003, published 2006).
Counter-ions that a name gives are not always drawn. Like-named read-outs stand apart in the source and are kept apart here. Blank lines part the entries; values can stand above or below the compound they belong to.

Molecular target: T1, recombinant human SIRT1 (Homo sapiens, UniProt Q96EB6)
T1 sequence (Q96EB6 1-747): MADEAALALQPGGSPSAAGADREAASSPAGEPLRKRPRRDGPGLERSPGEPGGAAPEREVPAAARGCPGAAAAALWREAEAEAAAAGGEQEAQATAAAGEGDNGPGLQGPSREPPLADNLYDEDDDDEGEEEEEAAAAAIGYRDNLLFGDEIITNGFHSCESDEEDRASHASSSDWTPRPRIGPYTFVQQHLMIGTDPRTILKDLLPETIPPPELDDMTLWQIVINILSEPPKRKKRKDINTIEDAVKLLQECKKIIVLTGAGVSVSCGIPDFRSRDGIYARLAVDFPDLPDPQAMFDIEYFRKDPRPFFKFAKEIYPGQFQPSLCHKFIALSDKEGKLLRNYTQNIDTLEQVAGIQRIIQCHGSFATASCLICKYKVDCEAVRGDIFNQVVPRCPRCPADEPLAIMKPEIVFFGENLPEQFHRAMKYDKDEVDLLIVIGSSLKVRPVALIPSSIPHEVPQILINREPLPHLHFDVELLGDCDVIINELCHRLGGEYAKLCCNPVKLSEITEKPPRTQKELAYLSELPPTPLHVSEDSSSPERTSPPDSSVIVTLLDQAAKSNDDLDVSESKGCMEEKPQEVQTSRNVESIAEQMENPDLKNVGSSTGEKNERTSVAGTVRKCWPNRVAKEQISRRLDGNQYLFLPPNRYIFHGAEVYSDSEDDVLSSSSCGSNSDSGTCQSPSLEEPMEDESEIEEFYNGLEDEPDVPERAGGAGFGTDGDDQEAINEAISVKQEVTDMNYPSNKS
Assay: SIRT1 fluorescent deacetylation assay (p53-382 acetylated peptide substrate)
Type: biochemical
Details: for SIRT1 stimulating activity (in words): polyphenol screen

[1] = Table 13, resveratrol analogs, 100 μM, 25 μM NAD+, 25 μM p53-382 acetylated peptide
[2] = Supplementary Table 6, free radical protective compounds, 100 μM, 25 μM NAD+, 25 μM p53-382 acetylated peptide
[3] = Table 12, resveratrol analogs, 100 μM, 25 μM NAD+, 25 μM p53-382 acetylated peptide
[4] = Supplementary Table 2, flavones part I, 100 μM, 25 μM NAD+, 25 μM p53-382 acetylated peptide
[5] = Supplementary Table 4, isoflavones, flavanones, anthocyanidins, 100 μM, 25 μM NAD+, 25 μM p53-382 acetylated peptide
[6] = Supplementary Table 8, compound at 10 μM, 25 μM NAD+, 25 μM p53-382 acetylated peptide
[7] = Table 10, resveratrol analogs, 100 μM, 25 μM NAD+, 25 μM p53-382 acetylated peptide
[8] = Supplementary Table 3, flavones part II, 100 μM, 25 μM NAD+, 25 μM p53-382 acetylated peptide
[9] = Supplementary Table 1, stilbenes and chalcones, 100 μM, 25 μM NAD+, 25 μM p53-382 acetylated peptide

Compound: Oc1ccc(/C=C/c2ccccc2)cc1 [4-Hydroxy-trans-stilbene]
Ratio to Control Rate Mean ± SE [1]: 0.943 ± 0.039

Ratio to Control Rate Mean ± SE [2]: 2.48 ± 0.15
Compound: CC(C)c1cccc(=O)c(O)c1 [Hinokitiol, 2-hydroxy-4-isopropyl-2,4,6-cycloheptatrien-1-one]

Ratio to Control Rate Mean ± SE [3]: 2.316 ± 0.087
Compound: COCOc1cc(/C=C/c2ccc(SC)cc2)cc(OCOC)c1 [BML-226, 3,5-Dimethoxymethoxy-4′-thiomethyl-trans-stilbene]

Ratio to Control Rate Mean ± SE [4]: 2.10 ± 0.22
Compound: O=c1c(O)c(-c2ccc(O)cc2O)oc2ccc(O)cc12 [3,6,2′,4′-Tetrahydroxyflavone]

Ratio to Control Rate Mean ± SE (Table 9, resveratrol analogs, 100 μM, 25 μM NAD+, 25 μM p53-382 acetylated peptide): 9.373 ± 0.014
Compound: CCc1ccc(/C=C/c2cc(O)cc(O)c2)cc1 [BML-225, 3,5-Dihydroxy-4′-ethyl-trans-stilbene]

Ratio to Control Rate Mean ± SE [5]: 2.28 ± 0.74
Compound: O=c1c(-c2ccc(O)cc2)coc2cc(O)ccc12 [Daidzein, 7,4′-Dihydroxyisoflavone]

Ratio to Control Rate Mean ± SE [6]: 1.737 ± 0.082
Compound: O=c1ccc2cc(O)c(O)cc2o1 [Esculetin]

Ratio to Control Rate Mean ± SE [2]: 1.030 ± 0.055
Compound: Cc1c(C)c2c(c(C)c1O)CCC(C)(CN1CCN(c3cc(N4CCCC4)nc(N4CCCC4)n3)CC1)O2.Cl.Cl (single isomer, unassigned; (-)) [Compound U-83836E, (−)-2-((4-(2,6-di-1-Pyrrolidinyl-4-pyrimidinyl)-1-piperazinyl)methyl)-3,4-dihydro-2,5,7,8-tetramethyl-2H-1-benzopyran-6-ol-2HCl, reference compound]

Ratio to Control Rate Mean ± SE (Supplementary Table 8, compound concentration not given, 25 μM NAD+, 25 μM p53-382 acetylated peptide): 0.069 ± 0.028
Compound: CCCCCCCCCCCCC/C=C/[C@@H](O)[C@@H](N)CO [Sphingosine]

Ratio to Control Rate Mean ± SE [5]: 1.109 ± 0.026
SIRT1 stimulating activity (in words): absence of activity
Compound: O=c1c(-c2ccc(O)cc2)coc2cc(O)cc(O)c12 [5,7,4′-Trihydroxyisoflavone]

Ratio to Control Rate Mean ± SE [7]: 6.01 ± 0.15
Compound: CC(C)c1ccc(/C=C/c2cc(O)cc(O)c2)cc1 [BML-231, 3,5-Dihydroxy-4′-isopropyl-trans-stilbene]

Ratio to Control Rate Mean ± SE [8]: 1.73 ± 0.12
Compound: O=c1cc(-c2ccc(O)cc2)oc2ccccc12 [4′-Hydroxyflavone]

Ratio to Control Rate Mean ± SE [8]: 1.91
Compound: O=c1c(O)c(-c2ccc(O)cc2)oc2c(O)c(O)ccc12 [7,8,3,4′-Tetrahydroxyflavone]

Ratio to Control Rate Mean ± SE [9]: 1.14 ± 0.29
Compound: C(=C/c1ccccc1)/c1ccccc1 [cis-Stilbene]

Ratio to Control Rate Mean ± SE [4]: 3.55 ± 0.56
Compound: O=c1c(O)c(-c2ccc(O)cc2)oc2cc(O)cc(O)c12 [Kaempferol, 3,5,7,4′-Tetrahydroxyflavone]

Ratio to Control Rate Mean ± SE (Supplementary Table 8, compound at 100 μM, 25 μM NAD+, 25 μM p53-382 acetylated peptide): 1.738 ± 0.088
Compound: CC(Cc1ccc(O)c(O)c1)C(C)Cc1ccc(O)c(O)c1 (stereo not shown) [NDGA]

Ratio to Control Rate Mean ± SE [3]: 1.88 ± 0.11
Compound: CC(=O)Nc1ccc(/C=C/c2cc(O)cc(O)c2)cc1 [BML-222, 3,5-Dihydroxy-4′-acetamide-trans-stilbene]

Compound: O=C(Nc1ccc(C(=O)Nc2ccc(C(=O)Nc3ccc(S(=O)(=O)O)c4cc(S(=O)(=O)O)cc(S(=O)(=O)O)c34)cc2)cc1)Nc1ccc(C(=O)Nc2ccc(C(=O)Nc3ccc(S(=O)(=O)O)c4cc(S(=O)(=O)O)cc(S(=O)(=O)O)c34)cc2)cc1 [NF279, reference compound]
Ratio to Control Rate Mean ± SE (Supplementary Table 7, miscellaneous compounds, 100 μM, 25 μM NAD+, 25 μM p53-382 acetylated peptide): 0.0035

Compound: Cc1ccc(C(=O)Nc2ccc(S(=O)(=O)O)c3cc(S(=O)(=O)O)cc(S(=O)(=O)O)c23)cc1NC(=O)c1cccc(NC(=O)Nc2cccc(C(=O)Nc3cc(C(=O)Nc4ccc(S(=O)(=O)O)c5cc(S(=O)(=O)O)cc(S(=O)(=O)O)c45)ccc3C)c2)c1 [Suramin, reference compound]
Ratio to Control Rate Mean ± SE: −0.0002

Ratio to Control Rate Mean ± SE [3]: 1.297 ± 0.042
Compound: Oc1cc(O)cc(/C=C/C2CCCCC2)c1 [BML-224, (E)-1-(3,5-Dihydroxyphenyl)-2-(cyclohexyl) ethene]

Ratio to Control Rate Mean ± SE [9]: 1.48 ± 0.15
Compound: C(=C\c1ccccc1)/c1ccccc1 [trans-Stilbene]

Ratio to Control Rate Mean ± SE [2]: 1.075 ± 0.0026
Compound: Nc1c(Br)cc(Br)cc1CN[C@H]1CC[C@H](O)CC1 [Ambroxol, trans-4-(2-Amino-3,5-dibromobenzylamino)cyclohexane.HCl, reference compound]

Compound: Camptothecin [reference compound]
Ratio to Control Rate Mean ± SE [6]: 2.92 ± 0.41

Ratio to Control Rate Mean ± SE [9]: 1.94 ± 0.21
Compound: COc1ccc(/C=C/c2cc(O)cc(O[C@@H]3O[C@H](CO)[C@@H](O)[C@H](O)[C@H]3O)c2)cc1 [Deoxyrhapontin, 3,5-Dihydroxy-4′-methoxystilbene 3-O-β-D-glucoside]

Ratio to Control Rate Mean ± SE [8]: 1.461 ± 0.071
Compound: O=c1c(O)c(-c2ccc(O)cc2O)oc2cc(O)cc(O)c12 [Morin, 3,5,7,2′,4′-Pentahydroxyflavone]

Ratio to Control Rate Mean ± SE [8]: 1.41 ± 0.23
Compound: O=c1cc(-c2ccccc2)oc2ccccc12 [Flavone]

Ratio to Control Rate Mean ± SE [4]: 2.77 ± 0.40
Compound: O=c1cc(-c2ccc(O)cc2)oc2cc(O)cc(O)c12 [Apigenin, 5,7,4′-Trihydroxyflavone]

Ratio to Control Rate Mean ± SE [7]: 6.84 ± 1.26
Compound: CSc1ccc(/C=C/c2cc(O)cc(O)c2)cc1 [BML-230, 3,5-Dihydroxy-4′-thiomethyl-trans-stilbene]

Ratio to Control Rate Mean ± SE [8]: 0.898 ± 0.070
Compound: O=c1c(O)c(-c2cc(O)c(O)c(O)c2)oc2cc(O)cc(O)c12 [Myricetin, 3,5,7,3′,4′,5′-Hexahydroxyflavone]

Ratio to Control Rate Mean ± SE [9]: 1.40 ± 0.37
Compound: COc1ccc(/C=C/c2cc(O)cc(O[C@@H]3O[C@H](CO)[C@@H](O)[C@H](O)[C@H]3O)c2)cc1O [Rhapontin, 3,3′,5-Trihydroxy-4′-methoxystilbene 3-O-β-D-glucoside]

Ratio to Control Rate Mean ± SE [1]: 0.902 ± 0.014
Compound: O=C(Nc1ccccc1)c1cc(O)cc(O)c1 [BML-219, N-phenyl-(3,5-dihydroxy)benzamide]

Compound: C[N+](C)(C)[C@@H](Cc1c[nH]c(=S)[nH]1)C(=O)[O-] [L-(+)-Ergothioneine, (S)-a-Carboxy-2,3-dihydro-N,N,N-trimethyl-2-thioxo-1H-imidazole-4-ethanaminium inner salt]
Ratio to Control Rate Mean ± SE [2]: 2.06 ± 0.48

Ratio to Control Rate Mean ± SE (Supplementary Table 5, catechins, 100 μM, 25 μM NAD+, 25 μM p53-382 acetylated peptide): 0.32 ± 0.12
Compound: O=C(O[C@@H]1Cc2c(O)cc(O)cc2O[C@@H]1c1cc(O)c(O)c(O)c1)c1cc(O)c(O)c(O)c1 [(−)-Epigallocatechin Gallate]

Ratio to Control Rate Mean ± SE [1]: 0.840 ± 0.089
Compound: COc1ccc(/C=C/c2ccccc2)cc1 [4-Methoxy-trans-stilbene]

Ratio to Control Rate Mean ± SE [4]: 5.66 ± 0.80
Compound: O=c1cc(-c2ccc(O)c(O)c2)oc2cc(O)cc(O)c12 [Luteolin, 5,7,3′,4′-Tetrahydroxyflavone]

Ratio to Control Rate Mean ± SE [2]: 1.150 ± 0.090
Compound: Cl.O.O=C(O)CN(CCN(CC(=O)O)Cc1ccccc1O)Cc1ccccc1O [HBED, N,N′-Di-(2-hydroxybenzyl)ethylenediamine-N,N′-diacetic acid.HCl.H2O, reference compound]

Ratio to Control Rate Mean ± SE [7]: 7.24 ± 0.12
Compound: [N-]=[N+]=Nc1ccc(/C=C/c2cc(O)cc(O)c2)cc1 [BML-232, 3,5-Dihydroxy-4′-azido-trans-stilbene]
SIRT1 stimulating activity (in words): very similar SIRT1 activating properties to resveratrol

Ratio to Control Rate Mean ± SE [2]: 1.2513 ± 0.0080
Compound: CC1=NN(c2ccccc2)C(=O)C1 [MCI-186, 3-Methyl-1-phenyl-2-pyrazolin-5-one, reference compound]

Compound: Oc1ccc(/C=C/c2ccccc2)cc1O [3,4-Dihydroxy-trans-stilbene]
Ratio to Control Rate Mean ± SE [3]: 1.64 ± 0.10

Compound: O=c1c(O)c(-c2ccc(O)c(O)c2)oc2c(O)c(O)cc(O)c12 [Gossypetin, 3,5,7,8,3′,4′-Hexahydroxyflavone]
Ratio to Control Rate Mean ± SE [8]: 0.723 ± 0.062

Ratio to Control Rate Mean ± SE [8]: 0.826 ± 0.074
Compound: O=c1c(O)c(-c2cc(O)c(O)c(O)c2)oc2cc(O)ccc12 [3,7,3′,4′,5′-Pentahydroxyflavone]

Ratio to Control Rate Mean ± SE [2]: 1.80 ± 0.16
Compound: O=C(/C=C/c1ccc(O)c(O)c1)Oc1ccccc1 [Caffeic Acid Phenyl Ester]

Ratio to Control Rate Mean ± SE [9]: 2.80 ± 0.32
Compound: O=C(/C=C/c1ccc(O)c(O)c1)c1c(O)cc(O)cc1O [3,4,2′,4′,6′-Pentahydroxychalcone]

Ratio to Control Rate Mean ± SE [4]: 1.91 ± 0.17
Compound: O=c1cc(-c2ccc(O)cc2)oc2cc(O)ccc12 [7,4′-Dihydroxyflavone]
